From article PMC12441834, “Highly Potent and Subtype-Selective Sperm-Specific Potassium Channel SLO3 Inhibitors Display High Tissue Exposure in the Murine Female Reproductive Tract” (ACS Pharmacology & Translational Science, 2025) come the findings set out here.

Data set [1] concerns the target Glucocorticoid (Homo sapiens, UniProt P04150). The data set is described as follows: LeadProfilingScreen radioligand binding.
Data set [2] addresses T1, mouse SLO3 (Mus musculus, UniProt O54982).
T1 construct: expressed in transfected cells; host or cells: HEK293 (transient, Lipofectamine 3000, with pmaxGFP as marker)
T1 sequence (O54982 1-1121): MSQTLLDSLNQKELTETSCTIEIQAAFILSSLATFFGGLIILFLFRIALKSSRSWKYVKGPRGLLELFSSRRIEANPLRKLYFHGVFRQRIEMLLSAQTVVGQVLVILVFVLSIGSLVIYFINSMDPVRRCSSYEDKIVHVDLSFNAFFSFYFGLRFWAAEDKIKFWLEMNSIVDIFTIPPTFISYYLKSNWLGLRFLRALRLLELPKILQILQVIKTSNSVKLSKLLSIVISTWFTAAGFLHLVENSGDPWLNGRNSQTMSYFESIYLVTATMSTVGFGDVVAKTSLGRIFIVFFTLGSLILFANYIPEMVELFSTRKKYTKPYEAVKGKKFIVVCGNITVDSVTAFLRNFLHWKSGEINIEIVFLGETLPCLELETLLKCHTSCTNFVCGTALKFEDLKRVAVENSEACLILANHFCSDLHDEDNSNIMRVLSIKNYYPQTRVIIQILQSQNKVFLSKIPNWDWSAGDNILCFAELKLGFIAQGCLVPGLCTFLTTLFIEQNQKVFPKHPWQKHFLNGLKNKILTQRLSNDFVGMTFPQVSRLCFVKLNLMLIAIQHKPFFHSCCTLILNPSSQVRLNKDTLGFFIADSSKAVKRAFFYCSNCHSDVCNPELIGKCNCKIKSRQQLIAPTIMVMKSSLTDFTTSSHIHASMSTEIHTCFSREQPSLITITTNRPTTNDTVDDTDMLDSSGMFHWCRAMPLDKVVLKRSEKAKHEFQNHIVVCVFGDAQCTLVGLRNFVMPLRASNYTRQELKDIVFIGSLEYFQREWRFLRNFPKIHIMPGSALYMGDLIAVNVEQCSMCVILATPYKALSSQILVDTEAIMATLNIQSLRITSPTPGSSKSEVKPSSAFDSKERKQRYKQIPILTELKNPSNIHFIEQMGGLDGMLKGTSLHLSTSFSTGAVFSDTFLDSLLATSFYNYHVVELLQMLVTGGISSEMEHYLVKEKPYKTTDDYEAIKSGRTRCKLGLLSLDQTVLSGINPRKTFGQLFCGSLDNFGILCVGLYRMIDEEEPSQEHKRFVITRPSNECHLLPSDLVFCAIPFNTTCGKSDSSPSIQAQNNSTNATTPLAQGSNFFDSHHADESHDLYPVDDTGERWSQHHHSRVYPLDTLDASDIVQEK
T1 sequence (Q5M8M9 24-314 partner): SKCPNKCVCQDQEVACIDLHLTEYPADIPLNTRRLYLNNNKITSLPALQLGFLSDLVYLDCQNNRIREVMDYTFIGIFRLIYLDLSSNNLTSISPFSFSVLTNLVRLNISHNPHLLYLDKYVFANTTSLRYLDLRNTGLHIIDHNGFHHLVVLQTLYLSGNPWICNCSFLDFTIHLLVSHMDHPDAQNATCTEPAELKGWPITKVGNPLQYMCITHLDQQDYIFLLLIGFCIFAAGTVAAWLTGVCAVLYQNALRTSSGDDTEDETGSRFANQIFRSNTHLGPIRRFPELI
The data set is described as follows: Whole-cell recording, mouse SLO3-γ2 expressed in HEK293 cells. Format: cell-based. The conditions noted are these: for IC50: HEK293 cells transfected with murine SLO3-γ2, read-out: mSLO3 IC50; for Hill coefficient: mouse SLO3-γ2 in HEK293 cells. On the procedure: HEK293 cells were plated at a density of ∼400,000 cells per 40 mm dish the day before transfection. Lipofectamine 3000 transfection reagent (catalog #L3000015; Thermo Fisher Scientific) was used to transfect HEK293 cells following manufacturer’s instructions. Per 40 mm dish, 2.25 μg of mouse SLO3 and its auxiliary subunit γ2 cDNAs (1:1) were added to cell layers that were 70–90% confluent. As a marker for transfection, cells were cotransfected with pmaxGFP, a CMV plasmid expressing green fluorescent protein (Amaxa Biosystems) at 0.2 μg per dish. After transfection, the cells were incubated at 37 °C with 5% CO2 for 2–4 d until recording.
Voltage-clamp recordings were performed using an Axopatch 200B amplifier (Molecular Devices). Recordings were filtered at 5 kHz with the internal filter of the amplifier and digitized at 50 kHz using a Digidata 1550B digitizer (Molecular Devices). Recording pipettes were pulled from borosilicate glass with tip resistances of 3–8 MΩ after filling with pipette solution containing (in mM): 140 KMES, 1 EGTA, 10 HEPES, pH 7.4 with KOH. Bath solutions contained (in mM): 135 NaMES, 5 KMES, 2 MgCl2, and 10 HEPES, pH 7.4 with NaOH. Experiments were performed at room temperature (∼22 °C). Whole-cell currents were evoked from a holding potential of −60 mV in steps from −80 to +100 mV in 10 mV increments. Test compounds were prepared daily from a 10 mM stock solution (in DMSO).
Data were analyzed with a pClamp 10.6 (Molecular Devices). VU6047606 and VU6032735 inhibition dose–response relationships were fit by the Hill equation in OriginPro 7.5 (OriginLab Corporation): R=1/1+(C/IC50)^n+Ioff , in which R is fractional unblock, C is compound concentration, IC50 is the half inhibition concentration, n is the Hill coefficient, and I off is an offset item for leak current. Error bars in the figures represent the SDs. Each data point is averaged from at least 5 measurements. Curve-fitting results are reported as the fitted values with standard error, which was estimated by OriginPro according to the Error Propagation formula.

Data set [3] concerns the target Neuropeptide Y Y1 (Homo sapiens, UniProt P25929). The data set is described as follows: LeadProfilingScreen radioligand binding.
For data set [4], the target named is Transporter, Norepinephrine (NET) (Homo sapiens, UniProt P23975). The data set is described as follows: LeadProfilingScreen radioligand binding.
The nature of data set [5]: Multispecies hepatocyte MetID. Format: in vitro ADME, cynomolgus monkey. The conditions noted are these: 4 h incubation with hepatocytes, 10 μM. As to the method: Metabolites were identified after preincubating each compound at a 10 μM final concentration with 2.5 × 10^5 hepatocytes from human, dog, cynomolgus monkey, and rat in 200 μL of Optiincubate buffer (BioIVT, Westbury, NY). […] After centrifugation, 60 μL of the supernatant was transferred to 60 μL of water for LC-MS analysis. Samples were analyzed using a Thermo Scientific Vanquish UHPLC consisting of a VH-P10-A pump, a VH-A10-A sampler module, a VH-C10-A column compartment, and the VF-D11-A UV detector coupled to an Orbitrap Fusion Lumos instrument with UVPD. A binary solvent system consisting of (A) water with 0.1% formic acid and (B) acetonitrile with 0.1% formic acid was used with an Accucore Vanquish C18+, 2.1 mm × 100 mm, 1.5 μm, UHPLC column maintained at 40 °C. The data generated by data-dependent acquisition via normal acquisition and AcquireX were processed manually with Thermo Scientific FreeStyle and assisted by Compound Discoverer 3.3.1.111 to aid in the structural assignments.

SMILES strings stand for the structures. Values joined by “and” are separate entries in the source; they are usually repeats but may differ in a detail not shown here. Identical values can stand only once. Some results are limits rather than exact numbers.

Sequence of Glucocorticoid (P04150 whole entry): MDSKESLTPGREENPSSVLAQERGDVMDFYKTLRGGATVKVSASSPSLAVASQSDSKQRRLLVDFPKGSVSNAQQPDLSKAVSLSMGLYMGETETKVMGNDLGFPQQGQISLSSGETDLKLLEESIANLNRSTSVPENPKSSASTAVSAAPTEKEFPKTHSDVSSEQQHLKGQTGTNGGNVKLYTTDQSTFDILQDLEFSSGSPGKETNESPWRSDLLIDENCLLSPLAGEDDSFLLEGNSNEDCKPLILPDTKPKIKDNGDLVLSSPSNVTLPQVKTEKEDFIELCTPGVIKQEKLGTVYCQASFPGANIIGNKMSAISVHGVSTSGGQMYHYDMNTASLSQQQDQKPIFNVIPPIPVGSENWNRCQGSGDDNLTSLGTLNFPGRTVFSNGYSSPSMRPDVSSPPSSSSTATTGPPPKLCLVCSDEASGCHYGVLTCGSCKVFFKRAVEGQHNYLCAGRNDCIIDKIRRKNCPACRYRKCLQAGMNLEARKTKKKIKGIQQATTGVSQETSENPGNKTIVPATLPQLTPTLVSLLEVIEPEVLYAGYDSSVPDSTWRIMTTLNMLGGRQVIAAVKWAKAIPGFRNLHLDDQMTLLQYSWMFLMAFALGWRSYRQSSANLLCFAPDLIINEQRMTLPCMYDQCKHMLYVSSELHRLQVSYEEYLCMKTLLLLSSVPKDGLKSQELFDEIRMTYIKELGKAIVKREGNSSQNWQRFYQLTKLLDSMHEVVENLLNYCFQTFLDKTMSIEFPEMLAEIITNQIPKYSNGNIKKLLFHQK
Sequence of Transporter, Norepinephrine (NET) (P23975 whole entry, the tested form may be a part): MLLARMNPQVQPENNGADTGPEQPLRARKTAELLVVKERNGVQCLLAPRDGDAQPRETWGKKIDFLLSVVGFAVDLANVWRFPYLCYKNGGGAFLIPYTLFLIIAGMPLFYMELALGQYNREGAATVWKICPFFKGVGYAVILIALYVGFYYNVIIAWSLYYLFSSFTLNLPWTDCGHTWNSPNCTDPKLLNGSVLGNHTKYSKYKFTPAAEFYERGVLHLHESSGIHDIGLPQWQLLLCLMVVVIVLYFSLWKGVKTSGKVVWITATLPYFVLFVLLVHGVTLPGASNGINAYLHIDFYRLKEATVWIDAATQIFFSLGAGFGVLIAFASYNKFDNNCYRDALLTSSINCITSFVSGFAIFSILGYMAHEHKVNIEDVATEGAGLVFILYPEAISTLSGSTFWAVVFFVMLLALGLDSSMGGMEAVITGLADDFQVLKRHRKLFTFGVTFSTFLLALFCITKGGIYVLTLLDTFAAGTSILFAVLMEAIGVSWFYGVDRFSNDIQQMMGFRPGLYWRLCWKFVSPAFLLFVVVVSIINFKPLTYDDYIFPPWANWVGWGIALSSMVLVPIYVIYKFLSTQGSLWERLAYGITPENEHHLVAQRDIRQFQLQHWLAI
Sequence of Neuropeptide Y Y1 (P25929 whole entry): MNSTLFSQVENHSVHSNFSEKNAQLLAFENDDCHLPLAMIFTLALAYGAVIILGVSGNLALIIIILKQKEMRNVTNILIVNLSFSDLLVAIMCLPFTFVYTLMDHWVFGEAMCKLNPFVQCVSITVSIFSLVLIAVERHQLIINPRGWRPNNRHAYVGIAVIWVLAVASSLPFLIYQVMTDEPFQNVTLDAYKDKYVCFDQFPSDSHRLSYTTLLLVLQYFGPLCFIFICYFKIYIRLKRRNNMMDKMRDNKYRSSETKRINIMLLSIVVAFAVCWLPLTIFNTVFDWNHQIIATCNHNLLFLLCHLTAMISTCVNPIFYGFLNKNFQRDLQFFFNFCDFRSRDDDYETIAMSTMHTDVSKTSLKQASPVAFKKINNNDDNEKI

One may read the inhibition as the relative decrease from the control value, in per cent. What is called IC50 is the concentration needed to halve the response being measured. Broadly, the Hill coefficient is the slope factor of the fitted curve. For the compound `O=C(c1ccc(OCc2ccc(OC(F)(F)F)cc2)cc1)N1CCN(c2ccc(C(F)(F)F)cn2)CC1` [VU6032735], the inhibition at 10 µM in data set [1] is 10%; in data set [3], -1%; in data set [4], 30%. Besides, the IC50 in data set [2] came out at 0.73 µM. Also, the “fold more potent than VU6047606 on mouse SLO3” value in data set [2] (HEK293 cells, mSLO3-γ2) was ~1.6 fold. Also, the Hill coefficient in data set [2] was 1.03 ± 0.02. Also, the “% of Parent Related Material, Cyno” value in data set [5] is > 98%.

For the compound `Cc1cc(Cl)cc2sc(O[C@H]3CCN(C(=O)CCCS(=O)(=O)c4cccc(Br)c4)C[C@H]3F)nc12` [VU6047606], the results for the inhibition at 10 µM in data set [1], in data set [3] and in data set [4] were 18%, -16% and 44%, respectively. In data set [2], the IC50 stood at 1.15 µM. In data set [2], this compound registered a Hill coefficient of 0.83 ± 0.19. Moreover, the “fold less potent on murine SLO3 than on human SLO3” value in data set [2] (mouse versus human SLO3) is recorded as ~7 fold. In data set [5], the “% of Parent Related Material, Cyno” value was 82.77% and > 82%.
